Experimental data published in patent US20250368678A1, “19-NOR-C3,3-DISUBSTITUTED C21-AZACYCLO-S[…] AND METHOD FOR USING SAME” (SHANDONG LUYE PHARMACEUTICAL CO., LTD., priority 2022, published 2025).

Assays:
[1] = molecular target: T1, α1β2γ2 GABA receptors (α1β2γ2-CHO-TRex stable cell strain) (Homo sapiens, UniProt P14867+P47870); assay: Whole-cell patch clamp, intrasynaptic functional activity (positive allosteric regulation of GABA-induced current); format: cell-based; conditions: patch clamp -60 mV, GABA at EC10-20, α1β2γ2-CHO-TRex cells
T1 construct: expressed in transfected cells
T1 sequence (P14867 28-456): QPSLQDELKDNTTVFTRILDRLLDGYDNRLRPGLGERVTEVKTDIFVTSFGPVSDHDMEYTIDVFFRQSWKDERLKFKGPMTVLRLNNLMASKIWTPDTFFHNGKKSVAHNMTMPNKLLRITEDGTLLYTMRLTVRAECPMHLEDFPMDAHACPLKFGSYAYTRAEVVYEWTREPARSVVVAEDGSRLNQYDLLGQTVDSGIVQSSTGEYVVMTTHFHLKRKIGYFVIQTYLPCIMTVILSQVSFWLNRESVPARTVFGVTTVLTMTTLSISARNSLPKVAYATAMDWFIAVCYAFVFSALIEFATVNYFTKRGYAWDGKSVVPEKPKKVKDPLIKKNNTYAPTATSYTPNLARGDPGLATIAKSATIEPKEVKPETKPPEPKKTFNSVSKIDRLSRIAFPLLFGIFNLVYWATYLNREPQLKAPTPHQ
T1 sequence (P47870 25-512 limits assumed): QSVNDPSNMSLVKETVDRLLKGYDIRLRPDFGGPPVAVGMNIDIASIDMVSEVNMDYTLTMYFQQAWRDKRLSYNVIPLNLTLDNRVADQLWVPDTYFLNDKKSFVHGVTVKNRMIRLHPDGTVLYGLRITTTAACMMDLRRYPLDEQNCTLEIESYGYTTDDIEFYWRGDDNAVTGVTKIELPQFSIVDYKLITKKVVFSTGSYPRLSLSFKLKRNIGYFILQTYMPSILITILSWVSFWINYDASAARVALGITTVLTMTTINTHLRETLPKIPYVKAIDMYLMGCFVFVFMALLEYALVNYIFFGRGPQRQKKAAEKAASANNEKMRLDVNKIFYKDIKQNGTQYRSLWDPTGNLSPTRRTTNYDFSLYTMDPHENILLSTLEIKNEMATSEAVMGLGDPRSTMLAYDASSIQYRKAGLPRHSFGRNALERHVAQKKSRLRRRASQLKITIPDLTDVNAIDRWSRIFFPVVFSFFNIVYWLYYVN
T1 sequence (P18507 40-475 partner): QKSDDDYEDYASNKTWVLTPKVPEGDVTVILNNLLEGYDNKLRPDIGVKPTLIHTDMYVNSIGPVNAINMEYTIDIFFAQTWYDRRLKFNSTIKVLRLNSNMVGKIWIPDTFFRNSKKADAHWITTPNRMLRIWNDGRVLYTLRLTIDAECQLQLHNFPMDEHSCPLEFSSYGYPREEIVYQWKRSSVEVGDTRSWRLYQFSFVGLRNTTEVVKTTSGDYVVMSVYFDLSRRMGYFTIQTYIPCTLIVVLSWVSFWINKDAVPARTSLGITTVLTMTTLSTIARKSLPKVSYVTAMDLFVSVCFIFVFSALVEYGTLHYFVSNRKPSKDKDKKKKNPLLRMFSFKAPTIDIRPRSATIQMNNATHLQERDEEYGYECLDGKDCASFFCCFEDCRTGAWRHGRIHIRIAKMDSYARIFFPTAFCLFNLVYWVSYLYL
Protocol: (§1) The α4β3δ-HEK-FlpIn-TRex stable cell strain was cultured in DMEM+10% FBS complete culture medium, with the selective antibiotics being 10 μg/mL Blasticidin, 100 µg/mL Zeocin, 100 µg/mL Hygromycin, and 0.2 μg/mL Puromycin. The α1β2γ2-CHO-TRex stable cell strain was cultured in DMEM/F12+10% FBS complete culture medium, with the selective antibiotics being 10 μg/mL Blasticidin, 100 μg/mL Zeocin, 300 μg/mL Hygromycin, and […] Puromycin.
(§2) The day before the patch clamp experiment, cells were seeded onto 12 mm polylysine-coated coverslips and then cultured in 35 mm culture dishes, and tetracycline ([…]) was added to induce the expression of GABA receptors. The extracellular fluid had the following composition (in mM): 140 NaCl, 3 KCl, 1.5 MgCl2, 2 CaCl2, 10 HEPES, and 10 Glucose. After thorough mixing, NaOH was added to adjust the pH to 7.4, and sucrose was added to adjust the osmotic pressure to 300-320 mOsm. The fluid was stored at 4° C. The electrode internal solution had the following composition (in mM): 145 KCl, 1 MgCl2, 5 EGTA, 10 HEPES, and 5 MgATP. After thorough mixing, KOH was added to adjust the pH to 7.3, and sucrose was added to adjust the osmotic pressure to 290-300 mOsm. The solution was filtered through a […] before use.
(§3) Whole-cell patch clamp recording was mainly employed in this experiment. The membrane potential was clamped at −60 mV, and receptors were activated using GABA at an EC10-20 concentration ([…]). The test compounds were dissolved in 0.1% DMSO, and perfusion was performed for 30 s prior to GABA stimulation. Finally, the positive allosteric regulating effects of the test compounds on α1β2γ2 or α4β3δ were determined.
(§4) The experimental result for each concentration was expressed as a fold increase in the GABA-induced current caused by the compound. […] At least 5 concentrations are tested to obtain a complete EC50 curve and EC50 values. All experiments were repeated on no less than 3 cells, and data processing was completed using GraphPad prism software. The dose-response curves were fitted using the Hill equation, and the half-maximal activating concentration EC50 and Emax were finally obtained.

[2] = molecular target: T2, α4β3δ GABA receptors (α4β3δ-HEK-FlpIn-TRex stable cell strain) (Homo sapiens, UniProt P28472+P48169); assay: Whole-cell patch clamp, extrasynaptic functional activity (positive allosteric regulation of GABA-induced current); format: cell-based; conditions: patch clamp -60 mV, GABA at EC10-20, α4β3δ-HEK-FlpIn-TRex cells
T2 construct: expressed in transfected cells
T2 sequence (P48169 36-554): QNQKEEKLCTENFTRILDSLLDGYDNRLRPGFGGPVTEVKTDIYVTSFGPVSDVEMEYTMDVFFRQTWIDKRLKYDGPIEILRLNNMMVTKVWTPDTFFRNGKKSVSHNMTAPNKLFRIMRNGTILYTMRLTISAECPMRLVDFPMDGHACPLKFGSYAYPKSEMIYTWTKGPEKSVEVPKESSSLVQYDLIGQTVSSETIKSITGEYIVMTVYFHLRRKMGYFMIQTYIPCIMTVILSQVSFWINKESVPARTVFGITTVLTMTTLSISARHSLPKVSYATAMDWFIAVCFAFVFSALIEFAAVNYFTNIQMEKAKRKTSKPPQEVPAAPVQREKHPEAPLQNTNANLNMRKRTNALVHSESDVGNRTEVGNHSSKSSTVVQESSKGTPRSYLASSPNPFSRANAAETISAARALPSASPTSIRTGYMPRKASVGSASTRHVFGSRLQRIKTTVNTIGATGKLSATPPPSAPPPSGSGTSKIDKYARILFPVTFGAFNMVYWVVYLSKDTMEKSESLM
T2 sequence (P28472 26-473): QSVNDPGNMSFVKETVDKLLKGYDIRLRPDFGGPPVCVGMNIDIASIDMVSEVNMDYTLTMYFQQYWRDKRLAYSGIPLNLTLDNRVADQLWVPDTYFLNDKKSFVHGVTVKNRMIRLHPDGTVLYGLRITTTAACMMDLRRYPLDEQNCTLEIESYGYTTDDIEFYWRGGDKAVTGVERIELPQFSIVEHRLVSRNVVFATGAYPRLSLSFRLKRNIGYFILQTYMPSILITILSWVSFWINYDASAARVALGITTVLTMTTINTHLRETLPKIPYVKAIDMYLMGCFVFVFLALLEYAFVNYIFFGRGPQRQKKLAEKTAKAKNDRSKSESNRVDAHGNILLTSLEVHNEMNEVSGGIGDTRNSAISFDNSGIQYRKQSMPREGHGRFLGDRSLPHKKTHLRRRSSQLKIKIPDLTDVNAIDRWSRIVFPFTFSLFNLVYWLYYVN
T2 sequence (O14764 25-452 partner): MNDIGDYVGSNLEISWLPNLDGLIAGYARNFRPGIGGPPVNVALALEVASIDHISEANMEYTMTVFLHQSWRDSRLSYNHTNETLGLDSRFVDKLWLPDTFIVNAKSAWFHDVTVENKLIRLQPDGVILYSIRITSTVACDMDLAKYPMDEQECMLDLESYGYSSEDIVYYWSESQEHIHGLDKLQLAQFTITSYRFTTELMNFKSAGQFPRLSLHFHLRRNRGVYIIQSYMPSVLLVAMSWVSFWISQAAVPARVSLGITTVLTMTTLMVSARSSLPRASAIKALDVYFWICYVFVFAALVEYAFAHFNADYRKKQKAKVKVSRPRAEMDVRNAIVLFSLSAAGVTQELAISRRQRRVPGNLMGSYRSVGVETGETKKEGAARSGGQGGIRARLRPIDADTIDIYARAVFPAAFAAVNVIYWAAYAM
Protocol: as §1, §2, §3, §4

[3] = In vitro liver microsomal stability assay, rat; format: in vitro ADME; conditions: for CLint scaled at 1 µM / half-life at 1 µM / microsomal CLint at 1 µM / T1/2: Rat liver microsomes; for Remaining amount % at 60 min: Rat liver microsomes 0.5 mg/mL, NADPH; for microsomal CLint at 1 µM: read-out: CLint(mic)
Protocol: (§5) 1) Preparation of working solutions of test samples: The test samples were diluted with acetonitrile to 100 M.
(§6) 2) Preparation of a working solution of liver microsomes: liver microsomes were diluted with 100 mM phosphate-buffered saline to 0.56 mg/mL.
(§7) 3) Preparation of a working solution of reduced nicotinamide adenine dinucleotide (NADPH): A proper amount of NADPH was weighed out and diluted with phosphate-buffered saline to 20 mM, and an equal volume of a 60 mM MgCl2 solution was added.
(§8) 4) Preparation of a stop solution: Tolbutamide was diluted with acetonitrile to 20 ng/mL, serving as a stop solution containing an internal standard.
(§9) 1) Incubation anti-adsorption EP tubes were prepared and labeled with species, test/control sample, time points (0, 5, 10, 20, 30, 60 min, Blank60, and NCF60), etc.
(§10) 2) 2 L of test or control sample working solution, diluted with acetonitrile to 100 M, and 178 L of liver microsome working solution were added to each tube. For the Blank60 tube, 2 L of acetonitrile was added instead of a test sample. The tubes were pre-incubated in a 37° C. water bath for about 10 min, with each sample tested in triplicate.
(§11) 3) After the pre-incubation was complete, 20 L of NADPH working solution was added to each tube except for the 0 min and NCF60 tubes to start reactions, and 20 L of phosphate-buffered saline (containing 30 mM MgCl2) was added to the NCF60 tube. In the incubation system, the final concentrations of the test and control samples were 1 M, the final concentration of liver microsomes was 0.5 mg/mL, the final concentration of NADPH was 1 mM, and the final concentration of MgCl2 was 3 mM.
(§12) 4) For the 0 min sample, 600 L of stop solution was added before adding the NADPH working solution. After each sample was incubated for its respective time, 600 L of stop solution was added to stop the reaction.
(§13) 5) After the reaction was stopped, each sample was vortexed for 30 s and then centrifuged at 13,500 rpm for 10 min. 100 L of the supernatant was transferred to an EP tube, and 100 L Milli-Q water was added. The mixture was well mixed by vortexing and analyzed by LC-MS/MS.
(§14) 6) Testosterone and dextromethorphan were used as positive control samples under the same conditions to assess the stability and reliability of the system.
(§15) Parameters of the test samples, including their half-lives, intrinsic clearance rates in liver microsomes, and hepatic intrinsic clearance rates, were calculated based on the percentage of test sample remaining.

[4] = In vitro liver microsomal stability assay, human; format: in vitro ADME; conditions: for CLint scaled at 1 µM / half-life at 1 µM / microsomal CLint at 1 µM / T1/2: Human liver microsomes; for Remaining amount % at 60 min: Human liver microsomes 0.5 mg/mL, NADPH; for microsomal CLint at 1 µM: read-out: CLint(mic)
Protocol: as §5, §6, §7, §8, §9, §10, §11, §12, §13, §14, §15

SMILES	EC50 [1] [nM]	Emax [1] [%]	EC50 [2] [nM]	Emax [2] [%]	CLint scaled at 1 µM [3] [mL/min/kg]	half-life at 1 µM [3] [min]	Remaining amount % at 60 min [3] [%]	microsomal CLint at 1 µM [3] [µL/min/mg]	CLint scaled at 1 µM [4] [mL/min/kg]	half-life at 1 µM [4] [min]	Remaining amount % at 60 min [4] [%]	microsomal CLint at 1 µM [4] [µL/min/mg]	T1/2 [3] [min]	T1/2 [4] [min]
C[C@@]1(O)CC[C@H]2[C@H](CC[C@@H]3[C@@H]2CC[C@]2(C)[C@@H](C(=O)Cn4ccn(-c5cccc(F)c5)c4=O)CC[C@@H]32)C1 [Compound 11]	241	594	139	552	276	9	9.24	153	63	19.8	28.02	70	–	–
COc1ccc(-n2ncn(CC(=O)[C@H]3CC[C@H]4[C@@H]5CC[C@@H]6C[C@](C)(O)CC[C@@H]6[C@H]5CC[C@]34C)c2=O)cn1 [Compound 17]	–	389	–	474	161	–	6.6	90	17	–	57.7	19	15.5	72.9
C[C@@]1(O)CC[C@H]2[C@H](CC[C@@H]3[C@@H]2CC[C@]2(C)[C@@H](C(=O)Cn4cnn(-c5ccccc5F)c4=O)CC[C@@H]32)C1 [Compound 18]	171	710	107	541	278	9	9.7	154	30	41.7	38.3	33	–	–
C[C@@]1(O)CC[C@H]2[C@H](CC[C@@H]3[C@@H]2CC[C@]2(C)[C@@H](C(=O)Cn4cnn(-c5cccc(C(N)=O)c5)c4=O)CC[C@@H]32)C1 [Compound 19]	–	764	–	386	141	–	9.5	79	26	–	42.2	29	17.6	28.5
C[C@@]1(O)CC[C@H]2[C@H](CC[C@@H]3[C@@H]2CC[C@]2(C)[C@@H](C(=O)Cn4cnn(-c5cccc(F)n5)c4=O)CC[C@@H]32)C1 [Compound 20]	368	724	360	966	320	7.8	8.40	178	28	70.7	52.3	20	–	–
C[C@@]1(O)CC[C@H]2[C@H](CC[C@@H]3[C@@H]2CC[C@]2(C)[C@@H](C(=O)Cn4cnn(-c5ccnc(F)c5)c4=O)CC[C@@H]32)C1 [Compound 21]	153	–	116	–	69	36.3	31.9	38	23	53.3	47.9	26	–	–
C[C@@]1(O)CC[C@H]2[C@H](CC[C@@H]3[C@@H]2CC[C@]2(C)[C@@H](C(=O)Cn4cnn(-c5cccc(N)c5)c4=O)CC[C@@H]32)C1 [Compound 22]	349	786	213	–	146	17.1	8.9	81	320	7.8	8.6	178	–	–
C[C@@]1(O)CC[C@H]2[C@H](CC[C@@H]3[C@@H]2CC[C@]2(C)[C@@H](C(=O)Cn4cnn(-c5cncc(F)c5)c4=O)CC[C@@H]32)C1 [Compound 23]	145	618	150	601	72	34.7	31.7	40	21	60.3	53.4	23	–	–
C[C@@]1(O)CC[C@H]2[C@H](CC[C@@H]3[C@@H]2CC[C@]2(C)[C@@H](C(=O)Cn4cnn(-c5cc(F)ccc5F)c4=O)CC[C@@H]32)C1 [Compound 24]	340	347	79	743	118	21.1	14.7	66	17	71.4	56.1	19	–	–
